Measurements taken from patent US20240207245A1, “METHOD FOR INHIBITING METASTASIS OF TRIPLE-NEGATIVE BREAST CANCER USING ROSOXACIN” (National Yang Ming Chiao Tung University, priority 2022, published 2024).

Tests used:
Assay type in all cases: cell-based, human
[1] = system: highly metastatic breast cancer cell line (HMB cells); assay: Transwell Matrigel cell invasion assay, LPS-induced, HMB cells; details: LPS 1 μM + quinolone antibiotic 1 μM, 24 hours, compared with control group H2 (LPS only), FIG. 1
Protocol: (§1) In addition, the highly metastatic breast cancer cell line (abbreviated as HMB cells) used in the following experiments was obtained according to the following preparation processes: the MDA-MB-231 cells (2.5×10^6 cells) were injected into the mammary fat pad of a severe combined immune deficient (SCID) mice (purchased from BioLasco Taiwan Co., Ltd; 4 weeks old, with a body weight of approximately 20 g), and the triple-negative breast cancer cells metastasized to the lung of the SCID mice were harvested after 12 weeks. Next, the triple-negative breast cancer cells (2.5×10^6 cells) thus obtained were injected into the mammary fat pad of another SCID mice, and the HMB cells metastasized to the lung of the another SCID mice were harvested after 8 weeks.
The HMB cells prepared in section 1 of “General Experimental Materials” were divided into 8 groups, namely, two control groups (i.e., control groups H1 and H2), one experimental group (i.e., experimental group H), and five comparative groups (i.e., comparative groups H1 to H5). In addition, the MDA-MB-231 cells prepared in section 1 of “General Experimental Materials” were divided into three groups, namely, two control groups (i.e., control groups M1 and M2) and one experimental group (i.e., experimental group M).
Each group of the cells was seeded at a concentration of 1×10^5 cells per well into respective permeable Transwell® insert (Corning Inc.) for a 24-well plate.
Thereafter, the Transwell® inserts were placed into the 24-well plate that contained 0.6 mL of DMEM supplemented with 10% FBS in each well, followed by cultivation in a humidified incubator (37° C., 5% CO2, 95% relative humidity) for 24 hours.
Subsequently, the culture medium in each Transwell® insert was removed, and the respective Transwell® insert was washed with phosphate-buffered saline (PBS). The cells migrating through the polycarbonate membrane and attaching to the bottom side of the polycarbonate membrane were subjected to a fixation treatment with a 4% formaldehyde solution (in PBS) at room temperature for 15 minutes. Then, the non-migrating cells were removed using a cotton swab, followed by conducting staining using a 1% crystal violet solution according to techniques well-known to those skilled in the art. The number of the stained cells was counted under a Leica DMI3000 B inverted microscope (Leica Microsystems, Wetzlar, Germany) at 100× magnification, followed by analysis using Image-Pro Software (version 6.0).
The cell invasion percentage (%) of each group was calculated by substituting the thus obtained number of stained cells into the following Equation (I):
[formula] • where A=cell invasion percentage (%) • B=number of stained cells in respective group • C=number of stained cells in the control group H1 or the control group M1
(§2) The data thus obtained were analyzed according to the method described in section 1 of “General Procedures”.

MDA-MB-231 cells = assay: Transwell Matrigel cell invasion assay, LPS-induced, MDA-MB-231 cells; details: LPS 1 μM + rosoxacin 1 μM, 24 hours, compared with control group M2 (LPS only), FIG. 2
Text: Human breast cancer cell line MDA-MB-231 (ATCC HTB-26) was purchased from American Type Culture Collection (ATCC, Manassas, Va., USA).
The HMB cells prepared in section 1 of “General Experimental Materials” were divided into 8 groups, namely, two control groups (i.e., control groups H1 and H2), one experimental group (i.e., experimental group H), and five comparative groups (i.e., comparative groups H1 to H5). In addition, the MDA-MB-231 cells prepared in section 1 of “General Experimental Materials” were divided into three groups, namely, two control groups (i.e., control groups M1 and M2) and one experimental group (i.e., experimental group M). […]
Subsequently, the culture medium in each Transwell® insert was removed, and the respective Transwell® insert was washed with phosphate-buffered saline (PBS). […] The number of the stained cells was counted under a Leica DMI3000 B inverted microscope (Leica Microsystems, Wetzlar, Germany) at 100× magnification, followed by analysis using Image-Pro Software (version 6.0).
The cell invasion percentage (%) of each group was calculated by substituting the thus obtained number of stained cells into the following Equation (I): […]
as §2

[2] = system: highly metastatic breast cancer cell line (HMB cells); assay: Tumor-sphere formation assay, LPS-induced, HMB cells; details: LPS 1 μM + rosoxacin 1 μM, 21 days, compared with control group H2 (LPS only), FIG. 3
Protocol: as §1
The sphere formation medium used in this example was prepared by supplementing Gibco DMEM/F-12 medium with the ingredients shown in Table 3.
The HMB cells prepared in section 1 of “General Experimental Materials” were divided into three groups, namely, two control groups (i.e., control groups H1 and H2) and one experimental group (i.e., experimental group H). […]
The number of tumor spheres was counted under a Leica DMI3000 B inverted microscope (Leica Microsystems, Wetzlar, Germany) at 100× magnification.
as §2

SMILES | cell invasion percentage [1] | cell invasion percentage (MDA-MB-231 cells) | number of tumor spheres [2]
C[C@H]1NCc2cc(-c3ccc4c(=O)c(C(=O)O)cn(C5CC5)c4c3OC(F)F)ccc21 [Garenoxacin] | substantially similar to that determined in the control group H2 |  | 
CCn1cc(C(=O)O)c(=O)c2cc(F)c(N3CCNCC3)cc21 [Norfloxacin] | substantially similar to that determined in the control group H2 |  | 
NC1CCN(c2c(F)cc3c(=O)c(C(=O)O)cn(C4CC4)c3c2Cl)C1 (stereo not shown) [Clinafloxacin] | significantly higher than that determined in the control group H2 |  | 
CCn1cc(C(=O)O)c(=O)c2ccc(-c3ccncc3)cc21 [rosoxacin, 1-ethyl-4-oxo-7-(4-pyridyl)-1,4-dihydroquinoline-3-carboxylic acid] | significantly lower than that determined in the control group H2 | significantly lower than that determined in the control group M2 | significantly lower than that determined in the control group H2
COc1c(N2CCNC(C)C2)c(F)cc2c(=O)c(C(=O)O)cn(C3CC3)c12 (stereo not shown) [Gatifloxacin] | substantially similar to that determined in the control group H2 |  | 
